Patent US20060156431A1, “L-gulose dependent vitamin C synthesis” (Vlaams Interuniversitair Instituut Voor Biotechnologie VZW, priority 2003, published 2006)
Read-outs that look alike come from different tables or passages of the source.

Key:
[1] = system: A. thaliana cell suspensions; assay: In vivo labeling of A. thaliana cell suspensions with D-[U-14C]Man and L-AA determination; format: cell-based, Arabidopsis thaliana; details: pre-incubated 20 hours with 2.5 mM compound; for [^14C]-labeled L-AA / [^14C]-labeled L-AA (% of control): labeled two hours with D-[U-14C]Man; for Cold L-AA: acid extracts, HPLC
Procedure: GDP-Man 3″,5″-epimerase assay and L-AA determination. The GDP-Man 3″,5″-epimerase activity and L-AA were measured by the HPLC method as described (13), with the exception that the concentration of methanol in solvent A was 0.5% and the flow rate was 0.8 ml/min.
In vivo labeling of A. thaliana cell suspensions with D-[U-14C]Man. In vivo labeling of A. thaliana cells was performed as described (13). Cell suspensions were pre-adapted to labeling conditions for 20 hours in the presence or absence of exogenous L-AA or its precursors (2.5 mM), followed by two hours labeling with 1 μCi of D-[U-14C]Man. L-AA was extracted with 5% metaphosphoric acid containing 2 mM DTT and 1 mM EDTA.

[2] = molecular target: T1, GDP-Man 3″,5″-epimerase of A. thaliana (Arabidopsis thaliana, UniProt Q93VR3); assay: GDP-Man 3″,5″-epimerase assay (HPLC); format: biochemical; details: for inhibition at 1000 µM: read-out: inhibition of the epimerase activity; for epimerase activity: purified epimerase, exogenously added dinucleotide
T1 construct: The hydroxylapatite fraction of native epimerase (11) was used; endogenous in cells; host or cells: Arabidopsis thaliana ecotype Columbia cell suspensions; enzyme purified, hydroxylapatite fraction
T1 sequence (Q93VR3 1-377): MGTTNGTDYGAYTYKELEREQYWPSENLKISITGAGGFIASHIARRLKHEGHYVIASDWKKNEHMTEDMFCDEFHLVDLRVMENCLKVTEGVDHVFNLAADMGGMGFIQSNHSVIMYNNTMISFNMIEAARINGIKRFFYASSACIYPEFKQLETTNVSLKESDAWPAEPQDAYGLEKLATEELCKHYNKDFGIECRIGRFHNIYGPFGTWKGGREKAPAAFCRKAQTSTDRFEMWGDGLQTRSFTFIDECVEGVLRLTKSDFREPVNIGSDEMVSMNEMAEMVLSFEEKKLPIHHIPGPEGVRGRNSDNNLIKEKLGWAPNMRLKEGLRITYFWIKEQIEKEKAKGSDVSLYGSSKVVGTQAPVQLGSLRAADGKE
Procedure: Characterization of GDP-Man 3″,5″-epimerase of A. thaliana. (A) Steady-state parameters of the native (purified from A. thaliana cell suspensions) and recombinant enzyme. The hydroxylapatite fraction of native epimerase (11) was used. The affinity-purified recombinant enzymes were used. […] Double reciprocal plots are shown and each line represents a fixed GDP concentration: 0 μM, circles; 2 μM, triangles; and 4 μM, squares. V0 is pmol of GDP-L-Gal/L-Gul produced per minute. GDP-Man concentrations were from 1.1 to 5.5 μM. Inset: Secondary plot of slopes versus GDP concentration was used to determine the Ki value for GDP. […] Incubations contained GDP-[^14C]Man (3.4 μM), increasing amounts of GDP-L-Fuc, and an aliquot of the hydroxylapatite fraction of epimerase. Kinetic measurements were performed in duplicates; standard deviation was equal or less than 5%.

[3] = system: Chlorella epimerase; details: read-out: Km for the GDP-Man substrate; cited from earlier work

Row | Compound | Cold L-AA (% of control) [1] | [^14C]-labeled L-AA [1] | [^14C]-labeled L-AA (% of control) [1] | Cold L-AA [1] | other results
1 | O=C1O[C@H]([C@@H](O)CO)[C@@H](O)[C@@H]1O [L-galactono-1,4-lactone] | 170 % of control | 790 10^−3 × cpm/mg fw | 59 % of control | 360 nmol/g fw | inhibition at 1000 µM [2]: 14%
2 | O=C1O[C@H]([C@@H](O)CO)C(O)=C1O [L-AA, L-ascorbic acid] | 832 % of control | 448 10^−3 × cpm/mg fw | 33 % of control | 1764 nmol/g fw | inhibition at 1000 µM ([2]; 1 mM): 15%
3 | O=C1O[C@H]([C@@H](O)CO)[C@H](O)[C@@H]1O [L-Gulono-1,4-lactone, L-gulono-1,4-lactone] | 165 % of control | 722 10^−3 × cpm/mg fw | 54 % of control | 345 nmol/g fw | 
4 | C[C@@H]1O[C@H](OP(=O)(O)OP(=O)(O)OC[C@H]2O[C@@H](n3cnc4c(=O)[nH]c(N)nc43)[C@H](O)[C@@H]2O)[C@@H](O)[C@H](O)[C@@H]1O [GDP-L-Fuc, Guanosine diphospho-L-fucose] |  |  |  |  | IC50 [2]: 70 µM; type of inhibition of the epimerase ([2]; even at 1 mM concentration): partial inhibition
5 | NC(=O)C1=CN([C@@H]2O[C@H](COP(=O)(O)OP(=O)(O)OC[C@H]3O[C@@H](n4cnc5c(N)ncnc54)[C@H](OP(=O)(O)O)[C@@H]3O)[C@@H](O)[C@H]2O)C=CC1 [NADPH] |  |  |  |  | epimerase activity [2]: 88 % of control
6 | Nc1nc2c(ncn2[C@@H]2O[C@H](COP(=O)(O)OP(=O)(O)O)[C@@H](O)[C@H]2O)c(=O)[nH]1 [GDP] |  |  |  |  | Ki [2]: 700 nM
7 | O=C[C@@H](O)[C@@H](O)[C@H](O)[C@@H](O)CO [L-Gulose, L-gulose] | 190 % of control | 872 10^−3 × cpm/mg fw | 65 % of control | 403 nmol/g fw | 
8 | NC(=O)c1ccc[n+]([C@@H]2O[C@H](COP(=O)([O-])OP(=O)(O)OC[C@H]3O[C@@H](n4cnc5c(N)ncnc54)[C@H](OP(=O)(O)O)[C@@H]3O)[C@@H](O)[C@H]2O)c1 [NADP+] |  |  |  |  | epimerase activity [2]: 110 % of control
9 | O=C[C@@H](O)[C@H](O)[C@H](O)[C@@H](O)CO [L-galactose] | 315 % of control | 423 10^−3 × cpm/mg fw | 32 % of control | 668 nmol/g fw | inhibition of the epimerase activity ([2]; 1 mM): no effect
10 | adenosine diphospho-D-glucose [ADP-D-Glc] |  |  |  |  | effect on the enzyme activity ([2]; adenosine derivative): no effect
11 | Nc1nc2c(ncn2[C@@H]2O[C@H](COP(=O)(O)OP(=O)(O)O[C@H]3O[C@H](CO)[C@@H](O)[C@H](O)[C@H]3O)[C@@H](O)[C@H]2O)c(=O)[nH]1 [GDP-Glc, guanosine diphospho-D-glucose] |  |  |  |  | Ki [2]: 5000 nM
12 | NC(=O)C1=CN([C@@H]2O[C@H](COP(=O)(O)OP(=O)(O)OC[C@H]3O[C@@H](n4cnc5c(N)ncnc54)[C@H](O)[C@@H]3O)[C@@H](O)[C@H]2O)C=CC1 [NADH] |  |  |  |  | epimerase activity [2]: 78 % of control
13 | NC(=O)c1ccc[n+]([C@@H]2O[C@H](COP(=O)([O-])OP(=O)(O)OC[C@H]3O[C@@H](n4cnc5c(N)ncnc54)[C@H](O)[C@@H]3O)[C@@H](O)[C@H]2O)c1 [NAD+] |  |  |  |  | epimerase activity [2]: 145 % of control
14 | O=C1O[C@H]([C@H](O)CO)C(O)=C1O [D-isoascorbic acid] |  |  |  |  | inhibition of the epimerase activity ([2]; 1 mM): no effect
15 | Nc1nc2c(ncn2[C@@H]2O[C@H](COP(=O)(O)OP(=O)(O)O[C@H]3O[C@H](CO)[C@@H](O)[C@H](O)[C@@H]3O)[C@@H](O)[C@H]2O)c(=O)[nH]1 [GDP-Man, GDP-D-mannose] |  |  |  |  | Km [3]: 96 µM; Km ([2]; native epimerase, FIG. 1A, read-out: Km for the GDP-Man substrate): 4.4 µM
